Where two headings read alike, the source gives them in different places.
Columns and labels:
Hep-G2 cells = test: Cell viability, Hep-G2 cells (CEREP); type: cell-based
Protocol: Preliminary screening measures were conducted by CEREP. All values fall within acceptable limits (Table 5). Solubility assays where performed by CEREP, Seattle, Wash., according to Lipinski, C. A. et al., 1997, Adv. Drug Del. Rev., 46:3-26. Protein binding assays where performed by CEREP, Seattle, Wash., according to Banker, M. J. et al., 2003, J. Pharm. Sci., 92:967-974. Permeability assays where performed by CEREP, Seattle, Wash. according to Hildalgo, I. J., 1998, Gastroenterology, 96:736-749. Metabolic stability assays where performed by CEREP, Seattle, Wash., according to Obach, R. S. et al., 1997, J. Pharmacol. Exp. Ther., 283:46-58. P-glycoprotein inhibition assays where performed by CEREP, Seattle, Wash., according to Polli, J. W. et al., 2001, J. Pharm. Exp. Ther., 299:620-628. Cell viability assays where performed by CEREP, Seattle, Wash., according to Mosmann, T., 1983, J. Immunol. Met. 65:55-62. hERG automated patch clamp assays where performed by CEREP, Seattle, Wash., according to Mathes, C., 2006, Expert Opin. Ther. Targets, 10:230-241.

CYP1A2 = target: T1, CYP1A2 (Homo sapiens, UniProt P05177); test: Cytochrome p450 inhibition (CEREP); type: in vitro ADME; conditions: 10 μM
T1 construct: CEREP (contract laboratory)
T1 sequence (P05177 whole entry): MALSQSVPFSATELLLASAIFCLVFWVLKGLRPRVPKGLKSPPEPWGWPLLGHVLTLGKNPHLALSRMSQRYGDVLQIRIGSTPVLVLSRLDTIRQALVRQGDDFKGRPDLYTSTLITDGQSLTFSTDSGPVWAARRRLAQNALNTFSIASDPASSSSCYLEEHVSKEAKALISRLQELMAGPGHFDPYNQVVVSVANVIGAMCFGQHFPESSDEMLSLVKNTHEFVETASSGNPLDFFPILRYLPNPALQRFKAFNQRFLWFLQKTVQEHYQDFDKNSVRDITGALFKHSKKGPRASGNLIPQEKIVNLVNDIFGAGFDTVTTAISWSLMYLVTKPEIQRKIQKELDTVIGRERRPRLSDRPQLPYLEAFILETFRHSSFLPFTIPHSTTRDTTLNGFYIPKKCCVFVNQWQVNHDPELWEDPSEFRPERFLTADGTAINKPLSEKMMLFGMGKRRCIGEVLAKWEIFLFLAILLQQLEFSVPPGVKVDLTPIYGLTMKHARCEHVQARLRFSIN
Protocol: (§1) JB6121 was also tested for CYP inhibition, see Table 6 below. Assays where performed by CEREP, Seattle, Wash., according to Atkinson, A et al., 2005, Drug Metab. Dispos. 33:1637-1647.

CYP2B6 = target: T2, CYP2B6 (Homo sapiens, UniProt P20813); test: Cytochrome p450 inhibition (CEREP); type: in vitro ADME; conditions: 10 μM
T2 construct: CEREP (contract laboratory)
T2 sequence (P20813 whole entry): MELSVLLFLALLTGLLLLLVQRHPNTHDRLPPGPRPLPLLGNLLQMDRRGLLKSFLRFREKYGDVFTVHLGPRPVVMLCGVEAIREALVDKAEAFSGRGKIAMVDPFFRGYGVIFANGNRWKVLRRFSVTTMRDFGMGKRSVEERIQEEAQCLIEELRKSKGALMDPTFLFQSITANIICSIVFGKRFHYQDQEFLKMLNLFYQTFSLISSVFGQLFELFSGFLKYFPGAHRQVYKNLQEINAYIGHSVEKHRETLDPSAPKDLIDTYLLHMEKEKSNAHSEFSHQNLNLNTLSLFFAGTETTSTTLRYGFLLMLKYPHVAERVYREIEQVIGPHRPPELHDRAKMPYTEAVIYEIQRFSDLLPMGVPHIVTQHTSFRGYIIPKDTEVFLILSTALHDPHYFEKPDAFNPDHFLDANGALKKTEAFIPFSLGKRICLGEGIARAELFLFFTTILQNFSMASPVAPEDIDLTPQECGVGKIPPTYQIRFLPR
Protocol: as §1

CYP2C19 = target: T3, CYP2C19 (Homo sapiens, UniProt P33261); test: Cytochrome p450 inhibition (CEREP); type: in vitro ADME; conditions: 10 μM
T3 construct: CEREP (contract laboratory)
T3 sequence (P33261 whole entry): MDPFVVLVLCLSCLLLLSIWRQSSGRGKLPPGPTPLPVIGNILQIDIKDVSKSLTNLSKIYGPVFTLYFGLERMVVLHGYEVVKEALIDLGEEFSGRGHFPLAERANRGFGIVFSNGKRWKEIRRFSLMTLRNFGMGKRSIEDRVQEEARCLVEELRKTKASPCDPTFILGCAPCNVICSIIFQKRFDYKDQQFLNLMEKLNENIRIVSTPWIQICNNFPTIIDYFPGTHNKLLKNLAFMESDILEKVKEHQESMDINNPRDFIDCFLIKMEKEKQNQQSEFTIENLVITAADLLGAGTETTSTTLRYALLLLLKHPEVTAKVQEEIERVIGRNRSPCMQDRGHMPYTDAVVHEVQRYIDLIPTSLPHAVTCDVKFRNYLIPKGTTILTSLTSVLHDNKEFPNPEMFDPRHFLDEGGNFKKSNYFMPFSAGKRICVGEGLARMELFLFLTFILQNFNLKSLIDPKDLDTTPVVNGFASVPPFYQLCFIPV
Protocol: as §1

CYP2C8 = target: T4, CYP2C8 (Homo sapiens, UniProt P10632); test: Cytochrome p450 inhibition (CEREP); type: in vitro ADME; conditions: 10 μM
T4 construct: CEREP (contract laboratory)
T4 sequence (P10632 whole entry): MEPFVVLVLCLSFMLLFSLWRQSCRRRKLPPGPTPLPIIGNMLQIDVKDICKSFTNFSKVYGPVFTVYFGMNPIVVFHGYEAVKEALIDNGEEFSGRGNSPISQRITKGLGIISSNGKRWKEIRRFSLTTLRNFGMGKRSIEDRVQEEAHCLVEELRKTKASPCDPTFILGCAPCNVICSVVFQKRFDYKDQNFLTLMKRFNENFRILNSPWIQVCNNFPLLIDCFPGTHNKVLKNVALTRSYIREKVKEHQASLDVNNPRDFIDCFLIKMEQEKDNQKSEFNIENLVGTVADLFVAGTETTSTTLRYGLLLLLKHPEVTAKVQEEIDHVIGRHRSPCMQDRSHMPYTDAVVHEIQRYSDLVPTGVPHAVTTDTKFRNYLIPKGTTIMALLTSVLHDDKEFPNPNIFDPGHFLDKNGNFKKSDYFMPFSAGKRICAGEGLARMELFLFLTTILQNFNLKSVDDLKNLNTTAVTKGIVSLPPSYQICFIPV
Protocol: as §1

CYP2C9 = target: T5, CYP2C9 (Homo sapiens, UniProt P11712); test: Cytochrome p450 inhibition (CEREP); type: in vitro ADME; conditions: 10 μM
T5 construct: CEREP (contract laboratory)
T5 sequence (P11712 whole entry): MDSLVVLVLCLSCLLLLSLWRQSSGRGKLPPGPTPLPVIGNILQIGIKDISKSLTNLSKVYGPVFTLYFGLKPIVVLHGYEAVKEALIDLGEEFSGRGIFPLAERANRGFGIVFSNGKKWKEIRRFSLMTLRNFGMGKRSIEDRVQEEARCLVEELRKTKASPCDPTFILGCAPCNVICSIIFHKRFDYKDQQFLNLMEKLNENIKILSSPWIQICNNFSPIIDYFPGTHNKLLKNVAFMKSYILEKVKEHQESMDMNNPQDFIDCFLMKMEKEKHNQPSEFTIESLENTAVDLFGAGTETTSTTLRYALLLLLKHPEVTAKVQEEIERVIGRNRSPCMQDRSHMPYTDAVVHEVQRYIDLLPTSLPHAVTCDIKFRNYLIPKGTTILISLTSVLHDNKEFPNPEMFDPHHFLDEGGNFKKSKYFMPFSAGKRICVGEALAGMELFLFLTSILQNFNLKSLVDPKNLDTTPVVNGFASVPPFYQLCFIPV
Protocol: as §1

CYP2D6 = target: T6, CYP2D6 (Homo sapiens, UniProt P10635); test: Cytochrome p450 inhibition (CEREP); type: in vitro ADME; conditions: 10 μM
T6 construct: CEREP (contract laboratory)
T6 sequence (P10635 whole entry): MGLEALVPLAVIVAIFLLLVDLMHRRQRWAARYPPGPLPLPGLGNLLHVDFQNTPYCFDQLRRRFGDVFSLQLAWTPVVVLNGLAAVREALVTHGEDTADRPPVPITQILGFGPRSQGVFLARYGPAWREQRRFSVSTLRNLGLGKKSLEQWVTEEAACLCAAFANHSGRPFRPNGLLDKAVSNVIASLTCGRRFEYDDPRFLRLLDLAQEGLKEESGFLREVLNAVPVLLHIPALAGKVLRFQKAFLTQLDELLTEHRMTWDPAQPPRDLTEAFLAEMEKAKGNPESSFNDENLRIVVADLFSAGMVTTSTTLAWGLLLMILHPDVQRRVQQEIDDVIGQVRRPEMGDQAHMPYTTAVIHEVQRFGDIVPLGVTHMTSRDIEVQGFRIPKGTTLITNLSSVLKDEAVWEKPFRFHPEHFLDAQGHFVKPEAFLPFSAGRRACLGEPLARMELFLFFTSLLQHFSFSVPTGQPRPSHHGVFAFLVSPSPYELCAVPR
Protocol: as §1

CYP3A4 = target: T7, CYP3A4 (Homo sapiens, UniProt P08684); test: Cytochrome p450 inhibition (CEREP); type: in vitro ADME; conditions: 10 μM
T7 construct: CEREP (contract laboratory)
T7 sequence (P08684 whole entry): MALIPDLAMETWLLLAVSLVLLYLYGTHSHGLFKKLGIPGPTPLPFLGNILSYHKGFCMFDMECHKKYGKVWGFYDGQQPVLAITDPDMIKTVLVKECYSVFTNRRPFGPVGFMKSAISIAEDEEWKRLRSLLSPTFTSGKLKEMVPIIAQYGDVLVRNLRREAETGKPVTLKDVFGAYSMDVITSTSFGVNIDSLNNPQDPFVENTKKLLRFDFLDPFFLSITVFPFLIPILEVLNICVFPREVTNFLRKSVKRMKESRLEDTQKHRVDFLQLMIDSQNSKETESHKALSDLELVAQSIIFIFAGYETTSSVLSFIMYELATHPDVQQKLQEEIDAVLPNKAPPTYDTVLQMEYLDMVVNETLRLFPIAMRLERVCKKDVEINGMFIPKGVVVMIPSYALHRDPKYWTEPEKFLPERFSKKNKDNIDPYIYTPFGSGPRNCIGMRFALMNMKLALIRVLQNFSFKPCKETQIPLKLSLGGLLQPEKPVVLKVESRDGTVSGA
Protocol: as §1

[1] = Pharmacokinetic study in rats, IV and PO, whole blood (Charles River); type: in vivo, Sprague-Dawley rats
Protocol: A pharmacokinetic study was performed by Charles River Wilmington Mass., in rats and the doses where 2 mg/kg IV and 10 mg/kg PO and whole blood levels were measured for 72 h. The calculated pharmacokinetic parameters for 24 h are given below in Table 8.
Six (6) male Sprague-Dawley rats were selected from the Testing Facility's rodent colony. The animals were enrolled in the study based on acceptable health as determined by a Testing Facility veterinarian and based on patency of femoral and jugular vein catheters. Fasting was performed for at least 16 hours prior to dosing. Food was also withheld until after the 4 hour time point collection. The animals were placed into 2 groups of 3 animals per group. Each animal in Group 1 received prepared JB6121 by intravenous dose administration at a target dose level of 2 mg/kg and at a dose volume of 1 mL/kg. Immediately following intravenous dosing, the inter-dwelling catheter was flushed with 0.5 mL of saline. Each animal in Group 2 received prepared JB6121 by oral gavage dose administration at a target dose level of 10 mg/kg and at a dose volume of 10 mL/kg.
Whole blood samples (0.300 mL; K2EDTA anticoagulant) were collected from each animal through a jugular vein catheter. Whole blood samples were collected from all animals at 30 minutes and at 1, 2, 4, 6, 12, 24, 48, and 72 hours after dose administration.
Whole blood samples were transferred to the Charle River Bioanalytical Sciences Laboratory, Wilmington Mass., for analysis. Pharmacokinetic parameters were estimated using Watson pharmacokinetic software (Version No. 7.2) using a non-compartmental approach consistent with the IV or PO route of administration.

[2] = male, Sprague-Dawley, whole blood, Rat, PO 10.0 mg/kg

For `CN1CCN(c2nc(NCCN3CCOCC3)c3nc(Cl)c(NCCN4CCOCC4)nc3n2)CC1` [JB6121, 6-chloro-2-(4-methylpiperazin-1-yl)-N^4,N^7-bis(2-morpholinoethyl)pteridine-4,7-diamine], the “Cell Viability, Hep-G2 cells, % inhibition at 100 μM” value (Hep-G2 cells) was 8.5%, the “CYP1A2 Mean % Control” value (CYP1A2) was 97.0% and the “CYP2B6 Mean % Control” value (CYP2B6) was 58.2%. The “CYP2C19 Mean % Control” value (CYP2C19) was 92.9%, the “CYP2C8 Mean % Control” value (CYP2C8) was 87.7% and the “CYP2C9 Mean % Control” value (CYP2C9) was 46.7%. For the same molecule, the “CYP2D6 Mean % Control” value (CYP2D6) was 80.9%, the “CYP3A4, BFC substrate Mean % Control” value (CYP3A4; BFC substrate) was 94.1% and the “CYP3A4, BzRes substrate Mean % Control” value (CYP3A4; BzRes substrate) was 104.8%. For the same molecule, the AUC ([1]; male, Sprague-Dawley, rat, whole blood, iv, 2 mg/kg, Rat, IV 2.0 mg/kg, read-out: AUC) was 2040 ng·h/mL, the AUC ([1]; male, Sprague-Dawley, rat, whole blood, iv, 2 mg/kg, Rat, IV 2.0 mg/kg, read-out: AUC Extrap) was 2230 ng·h/mL and the bioavailability ([1]; male, Sprague-Dawley, rat, whole blood, oral, 10 mg/kg, summary statement, read-out: in vivo bioavailability) was greater than 20%. For the same molecule, the AUC ([1]; male, Sprague-Dawley, rat, whole blood, po, 10 mg/kg, Rat, PO 10.0 mg/kg, read-out: AUC) was 2100 ng·h/mL, the AUC ([1]; male, Sprague-Dawley, rat, whole blood, po, 10 mg/kg, Rat, PO 10.0 mg/kg, read-out: AUC Extrap) was 2310 ng·h/mL and the clearance ([1]; male, Sprague-Dawley, whole blood, Rat, IV 2.0 mg/kg) was 16.4 mL/min/kg. The Vd ([1]; male, Sprague-Dawley, whole blood, Rat, IV 2.0 mg/kg, read-out: Vdss) was 21.6 L/kg, the Cmax [1, 2] was 149 ng/mL and the Tmax [1, 2] was 3.33 h. The bioavailability ([1]; male, Sprague-Dawley, whole blood, Rat, PO 10.0 mg/kg, read-out: Bioavailability) was 20.6%, the half-life ([1]; male, Sprague-Dawley, Rat, IV 2.0 mg/kg, whole blood, 24 h, read-out: T½ (converted)) was 9.71 h and the “clinically relevant abnormalities during dosing and sampling” value ([1]; rats, 2 mg/kg IV and 10 mg/kg PO) was “no abnormalities were noted”.

Reference: patent US20170275287A1, “NOVEL N2, N4, N7, 6-TETRASUBSTITUTED PTERIDINE-2,4,7-TRIAMINE AND 2, 4, 6, 7-TETRASUBSTITUTED PTERIDINE COMPOUNDS AND METHODS OF SYNTHESIS AND USE THEREOF” (Janus Biotherapeutics, Inc., priority 2014, published 2017)
